Source: article PMC3006207, “Phosphorylation-Dependent Protein Interaction with Trypanosoma brucei 14-3-3 Proteins that Display Atypical Target Recognition” (PLoS ONE, 2010)
Square brackets hold non-standard residues; d marks the D form. Ends that are not written are not given here. Peptide text beside a SMILES is read from it. * marks the point of attachment. Biotin = O=C1N[C@H]2[C@H](CS[C@H]2CCCCC(=O)*)N1; pS = N[C@@H](COP(=O)(O)O)C(=O)O

Experiments:
[1] = test system: proteins of HeLa and T. brucei PCF cell lysates; test: Far-Western blot analysis of HeLa and PCF cell lysates with 14-3-3 probes; format: binding, HeLa (human) and Trypanosoma brucei; settings: for effect on interacting proteins, CalA (−) vs (+), with or without calcium: 1 mM CaCl2, T. brucei 14-3-3 probe 2 µg/ml, representative of three independent experiments
Protocol: Far-Western blot analysis of Ser/Thr phosphatase inhibitor Calyculin A (CalA) treated + and/or untreated – of HeLa and/or 29-13 PCF cell lysates was performed. HeLa cells and/or 29-13 PCF cells were lysed with SDS-gel loading buffer supplemented with 2-mercaptoethanol (Bio-Rad, Hercules, CA) and sonicated. The cell lysates equivalent to 5×10^5 HeLa cells and 1×10^7 29-13 PCF cells were applied on 4–20% SDS-PAGE (Daiichi, Japan) and transferred to nitrocellulose filters (Millipore, Bedford, MA). The filters were denatured with denaturation buffer (6M guanidine-HCl, 50 mM Tris-HCl, pH 8.0, and 1 mM dithiothreitol [DTT]). The denaturation buffer was then diluted with an equal volume of 50 mM Tris-HCl, pH 8.0 with 1 mM DTT. After 15 min of denaturation, the filters were then treated with 2x diluted denaturation buffer. The same step was repeatedly carried out eight times and then renatured filters were washed twice with TTBS (50 mM Tris-HCl, pH 7.4, 0.1% Tween 20, and 150 mM NaCl). The resultant filters were blocked with TTBS containing 4% skim milk plus 1 mM DTT. Then the filters were incubated overnight with 1 or 2 µg/ml of GST-14-3-3 probes in 4% skim milk containing the blocking solution at 4°C. The filters were washed three times with TTBS and incubated with anti-GST polyclonal antibodies (Sigma) followed by horseradish peroxidase (HRP)-labeled anti-rabbit goat IgG (Jackson Immunoresearch Laboratories, West Grove, PA).

[2] = test system: heterodimeric T. brucei 14-3-3I+II; test: NC-filter binding assay, heterodimeric T. brucei 14-3-3; design: species or system Trypanosoma brucei; settings: biotinylated peptide + streptavidine on nitrocellulose filter, GST-14-3-3 detected with α-GST antibodies
Protocol: (§1) Five µl of 1 mM biotinylated peptides, purchased from Scrum (Japan) were mixed with 15 µl of streptavidine (1 mg/ml) in the presence of 0.1% Tween20, spotted on NC-filters and dried. Filters were washed with TTBS, blocked with Protein-Free Blocking Buffer (Pierce), and then incubated with GST-14-3-3 proteins in TTBS containing 20% Protein-Free Blocking Buffer and 1 mM DTT. The filters were extensively washed four times with TTBS, and detected with anti-GST antibodies.

human 14-3-3ζ = test: NC-filter binding assay, human 14-3-3ζ; settings: biotinylated peptide + streptavidine on nitrocellulose filter; GST-14-3-3ζ detected with α-GST antibodies
Protocol: as §1

human 14-3-3τ = target: T1, human 14-3-3τ (Homo sapiens, UniProt P27348); test: Surface plasmon resonance (BIAcore), phosphopeptide vs 14-3-3τ; format: binding; settings: 14-3-3τ; BIAcore 2000, BIAevaluation 3.0; biotinylated peptide on streptavidin chip (220 RU); HBS-EP buffer, 20 µl/min; read-out: estimated Kd of the mode 1 phosphopeptide
T1 construct: made in house
T1 sequence (P27348 1-245): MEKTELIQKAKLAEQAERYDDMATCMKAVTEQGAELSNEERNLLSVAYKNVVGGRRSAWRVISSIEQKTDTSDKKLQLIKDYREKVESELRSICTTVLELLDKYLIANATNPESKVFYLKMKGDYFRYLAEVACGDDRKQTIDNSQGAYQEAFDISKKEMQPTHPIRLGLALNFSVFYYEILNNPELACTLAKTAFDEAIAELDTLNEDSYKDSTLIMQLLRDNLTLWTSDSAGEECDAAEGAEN
Protocol: The surface plasmon resonance measurement was carried out using BIAcore 2000. A resonance unit value of 220 of biotinylated phosphopeptide pSRaf 259 (biotin-MAGGGRQRSTpSTPN) (mode 1 peptide) was coupled to a streptavidin-coated sensor chip (SA5, BIAcore). In the next step, 200 nM each of purified GST-14-3-3I, GST-14-3-3II, and GST–14-3-3τ, or 500 nM each of MBP-14-3-3I, MBP-14-3-3II, and MBP-14-3-3τ in HBS-EP buffer (BIAcore) was injected at a flow rate of 20 µl/min. A resonance unit value of 296 of biotinylated mode 2 peptide (biotin-MAGGGRLYHpSLP) was also coupled to SA5 and 200 nM each of GST-14-3-3I, GST-14-3-3II and GST-14-3-3τ in HBS-EP buffer, and was injected in the same manner.

[3] = test system: endogenous 14-3-3I (T. brucei PCF lysates); test: Peptide pull-down assay, endogenous 14-3-3I; format: binding, Trypanosoma brucei
Protocol: (§2) Ten µl of streptavidin agarose beads (Sigma Chemical Co., St. Louis, MO) were incubated with 10 µl of 100 µM of pRaf 259 (biotin- MAGGGRQRSTSTPN) and/or pSRaf 259 at room temperature for 30 min and the beads were washed three times with lysis buffer (150 mM NaCl, 10 mM HEPES, pH 7.5, 0.2% NP-40, 50 mM NaF, 1 mM Na3VO4 and Roche protease inhibitor tablets). Next, 1×10^9 cells of T. brucei PCF were lysed with 2 ml of the lysis buffer on ice. Insoluble proteins were pelleted and 1 ml of the supernatant was used for each peptide pull-down assay. The lysates were incubated with each bead, rotated at 4°C for 2 hrs and washed with the lysis buffer three times. Twenty µl of 2xSDS Gel loading buffer with 2-mercaptoethanol were added to the washed beads, and 5 µl of eluates were run on 10–20% SDS-PAGE. The blots were detected with α-I and/or α–II Abs as described previously.

[4] = test system: endogenous 14-3-3II (T. brucei PCF lysates); test: Peptide pull-down assay, endogenous 14-3-3II; format: binding, Trypanosoma brucei
Protocol: as §2

MBP-14-3-3τ = target: T2, MBP-14-3-3τ (human, UniProt P27348 1-245); test: SPR; BIAcore 2000; biotinylated phosphopeptide coupled to a streptavidin-coated chip (220 RU mode 1, 296 RU mode 2); 200 nM GST-14-3-3 or 500 nM MBP-14-3-3 proteins injected in HBS-EP at 20 µl/min; Kd by BIAevaluation 3.0; settings: both partners purified
T2 construct: human 14-3-3 tau; source: purified
T2 sequence (looked up): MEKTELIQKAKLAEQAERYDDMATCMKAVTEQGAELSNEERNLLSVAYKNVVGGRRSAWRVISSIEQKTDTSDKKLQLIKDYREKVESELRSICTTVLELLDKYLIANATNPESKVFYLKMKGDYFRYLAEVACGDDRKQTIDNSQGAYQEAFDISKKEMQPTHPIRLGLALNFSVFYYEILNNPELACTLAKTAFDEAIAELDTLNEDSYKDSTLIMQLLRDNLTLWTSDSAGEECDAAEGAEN

[5] = target: T3, GST-14-3-3ζ (human 14-3-3ζ) (human, UniProt P63104 1-245); test: far-Western, overlay or dot blot; NC-filter binding assay: biotinylated peptides (1 mM) mixed with streptavidin, spotted on nitrocellulose and dried; incubated with GST-14-3-3 proteins in TTBS with 20% Protein-Free Blocking Buffer and 1 mM DTT; anti-GST detection; settings: both partners purified
T3 construct: human 14-3-3 zeta
T3 sequence (looked up): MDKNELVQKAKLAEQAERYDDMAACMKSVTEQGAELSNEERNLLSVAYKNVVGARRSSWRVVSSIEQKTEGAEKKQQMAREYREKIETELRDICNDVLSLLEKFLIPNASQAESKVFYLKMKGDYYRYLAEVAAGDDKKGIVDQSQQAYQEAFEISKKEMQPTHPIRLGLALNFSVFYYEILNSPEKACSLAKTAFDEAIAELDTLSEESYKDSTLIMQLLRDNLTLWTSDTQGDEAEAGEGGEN

[6] = target: T4, GST-14-3-3τ (human 14-3-3τ fused to glutathione S-transferase) (human, UniProt P27348 1-245); test: SPR; settings: both partners purified
T4 construct: human 14-3-3 tau; also called GST-τ; source: purified
T4 sequence (looked up): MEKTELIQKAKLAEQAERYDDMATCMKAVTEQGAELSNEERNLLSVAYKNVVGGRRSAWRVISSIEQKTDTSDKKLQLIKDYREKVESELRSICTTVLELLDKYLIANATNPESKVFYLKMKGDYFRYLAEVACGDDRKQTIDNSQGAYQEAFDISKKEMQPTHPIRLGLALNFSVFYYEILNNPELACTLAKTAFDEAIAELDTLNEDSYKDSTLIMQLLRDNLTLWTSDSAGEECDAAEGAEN

[7] = target: T3, GST-14-3-3ζ (human 14-3-3ζ); test: far-Western, overlay or dot blot; settings: both partners purified

**Q.** For `COC[C@@H]([C@H](O)[C@H](O)C(=O)NCC[C@H](C)c1nc(/C=C/C[C@@H]2O[C@]3(C[C@@H](O)[C@@H]2C)O[C@H]([C@H](C[C@H](O)[C@H](C)[C@H](O)[C@H](C)/C=C(C)/C(C)=C/C=C/C(C)=C\C#N)OC)[C@H](OP(=O)(O)O)C3(C)C)co1)N(C)C` [calyculin A], which “effect on interacting proteins, CalA (−) vs (+), with or without calcium” value [1] is on record?
**A.** no major difference

**Q.** What about the “number and amounts of the 14-3-3τ-interacting protein upon treatment” value ([1]; PCF and HeLa cells, probe GST-τ) of the same molecule?
**A.** increased

**Q.** How did the “effect on interacting proteins, CalA (−) vs (+), with or without calcium” value [1] turn out when `[Ca+2].[Cl-].[Cl-]` [CaCl2] was run?
**A.** no major difference

**Q.** Which “interaction with spotted phosphopeptide” value [2] does the source give for “MGGGLTRSRpSL [PP2c (-W), mode 3 phosphopeptide derived from PP2c-W]” here?
**A.** failed to show the interactions

**Q.** What about the “interaction with spotted phosphopeptide” value ([2]; listed as MGGGLTRSRpSL) of the same molecule?
**A.** not detected

**Q.** And the “interaction with spotted phosphopeptide” value (human 14-3-3ζ)?
**A.** interacts with both phosphopeptides but with the preferential binding to the mode 3 peptide derived from p31-SAP

**Q.** Which Kd (human 14-3-3τ) does the source give for `CSCC[C@H](NC(=O)CCCC[C@@H]1SC[C@@H]2NC(=O)N[C@@H]21)C(=O)N[C@@H](C)C(=O)NCC(=O)NCC(=O)NCC(=O)N[C@@H](CCCNC(=N)N)C(=O)N[C@@H](CCC(N)=O)C(=O)N[C@@H](CCCNC(=N)N)C(=O)N[C@@H](CO)C(=O)N[C@H](C(=O)N[C@@H](COP(=O)(O)O)C(=O)N[C@H](C(=O)N1CCC[C@H]1C(=O)N[C@@H](CC(N)=O)C(=O)O)[C@@H](C)O)[C@@H](C)O` [pSRaf259] (Biotin-MAGGGRQRST[pS]TPN-OH) here?
**A.** 220 nM

**Q.** With HVSGLKRRRpSV [p31-SAP part of …pSV] as the molecule, how does the “interaction with spotted phosphopeptide” value [2] read?
**A.** high-affinity

**Q.** “-LIEGRKQTVG [ACS, putative mode 3 synthetic phosphopeptide derived from ACS (acetyl-CoA synthetase, putative)]” was tested. Which “interaction with spotted phosphopeptide” value [2] did it give?
**A.** would not interact

**Q.** And the “interaction with spotted phosphopeptide” value (human 14-3-3ζ)?
**A.** would not interact

**Q.** How did the peptide pull-down interaction ([3]; T. brucei PCF lysates, 5×10^8 cells/pull-down, Western blot α-I) turn out when “Biotin-MAGGGRQRSTSTPN [pRaf259, c-Raf-derived peptide in which 259Ser is unphosphorylated]” was run?
**A.** did not interact

**Q.** And the “recovery of 14-3-3I by peptide-conjugated beads” value ([3]; longer exposure)?
**A.** No 14-3-3I was recovered

**Q.** And the peptide pull-down interaction ([4]; T. brucei PCF lysates, 5×10^8 cells/pull-down, Western blot α-II)?
**A.** did not interact

**Q.** And the “peptide pull-down interaction, longer exposure” value ([4]; T. brucei PCF lysates, Western blot α-II, longer exposure)?
**A.** weak interaction

**Q.** And the “amount of captured 14-3-3II, phospho- vs non-phospho-peptide beads” value ([4]; longer exposure)?
**A.** not different between phospho-(pSRaf259) and non-phospho-(pRaf259) peptide-conjugated beads

**Q.** Which “interaction with spotted phosphopeptide” value [2] does the source give for -WLTRSRSLW [PP2c] here?
**A.** failed to show the interactions

B1: c-Raf-derived phosphopeptide pSRaf259 (biotin-MAGGGRQRSTpSTPN) (peptide)
peptide: Biotin-MAGGGRQRST[pS]TPN
notes: spacer before the c-Raf stretch; human c-Raf 1 stretch around Ser-259; also called mode 1 peptide; mode 1 phosphopeptide; source: synthetic peptide
**Q.** Does B1 bind (MBP-14-3-3τ)?
**A.** binds

**Q.** Does B1 bind [5]?
**A.** binds

**Q.** Does Biotin-MAGGGRLYH[pS]LP (not fully specified, also called mode 2 peptide) [mode 2 phosphopeptide (biotin-[residues removed]pSLP)] bind [6]?
**A.** binds

**Q.** Does Biotin-MAGGGRLYH[pS]LP (not fully specified, also called mode 2 peptide) [mode 2 phosphopeptide (biotin-[residues removed]pSLP)] bind [7]?
**A.** binds
